According to publication PMC9182007, “Statistical Methods in the Study of Protein Binding and Its Relationship to Drug Bioavailability in Breast Milk” (Molecules, 2022):
Where two headings read alike, the source gives them in different places.

What was measured:
[1] = target: T1, bovine serum albumin (BSA) (Bos taurus, UniProt P02769); assay: NP TLC on plates impregnated with bovine serum albumin; assay type: binding; settings: for NP (Rf, BSA-impregnated NP plate): Table S3, NP plate impregnated with 2 mg/mL BSA, pH 7.4 mobile phase; for NP (Rf value from the NP plate impregnated with 2 mg/mL BSA solution): Table S8, external group
T1 construct: purchased Sigma Aldrich
T1 sequence (P02769 25-607): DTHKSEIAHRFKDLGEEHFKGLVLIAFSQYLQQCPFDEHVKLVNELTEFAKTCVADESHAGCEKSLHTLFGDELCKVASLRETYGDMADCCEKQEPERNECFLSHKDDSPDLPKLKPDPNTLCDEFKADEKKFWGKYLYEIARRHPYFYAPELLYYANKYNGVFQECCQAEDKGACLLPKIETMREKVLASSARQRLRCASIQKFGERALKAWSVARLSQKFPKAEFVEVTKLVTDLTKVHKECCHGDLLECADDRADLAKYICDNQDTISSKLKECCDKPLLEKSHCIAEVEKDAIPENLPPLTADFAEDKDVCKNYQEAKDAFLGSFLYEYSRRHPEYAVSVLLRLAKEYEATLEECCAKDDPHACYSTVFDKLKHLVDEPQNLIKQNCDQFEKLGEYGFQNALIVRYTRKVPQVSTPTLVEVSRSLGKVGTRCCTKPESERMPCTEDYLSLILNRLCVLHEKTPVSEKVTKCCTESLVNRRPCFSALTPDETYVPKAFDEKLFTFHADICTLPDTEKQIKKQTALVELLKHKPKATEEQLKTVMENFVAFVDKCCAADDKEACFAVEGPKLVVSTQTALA

[2] = target: T1, bovine serum albumin (BSA); assay: RP TLC on plates impregnated with bovine serum albumin; assay type: binding; settings: for RP (Rf, BSA-impregnated RP plate): Table S4, RP plate impregnated with 2 mg/mL BSA, pH 7.4 mobile phase; for RP (Rf value from the RP plate impregnated with 2 mg/mL BSA solution): Table S8, external group
[3] = NP TLC on non-impregnated control plates; assay type: physicochemical; settings: for CNP (Rf, control NP plate): Table S3, non-impregnated NP plate, acetonitrile/acetate buffer pH 7.4/methanol 60:20:20; for CNP (Rf value from the non-impregnated NP plate, control): Table S8, external group
Method: (§1) For TLC chromatography, glass plates 20 × 20 cm from Merck, covered with silica gel with the addition of a fluorescent indicator, were used. Normal phase (NP) plates were used with standard Merck TLC Silica gel 60 F254 plates, while in reverse phase (RP) silanized plates RP-2: Merck TLC Silica gel 60 RP-2 F254 were used.
(§2) Normal and reversed phase thin layer chromatography (NP TLC and RP TLC respectively) was performed using silica-gel-coated glass plates. Half of them were covered with 2 mg/mL bovine serum albumin solution and half remained pure.
(§3) The mobility of the compounds was also determined on the plates with no protein as a modifier. […] The acetate buffer (20 mM) was prepared by dissolving 1.54 g of ammonium acetate in 1 L of distilled water. The pH was then adjusted with a concentrated ammonia solution using a pH meter. The plates were developed in standard, vertical chromatographic chambers, each time using 100 mL of the mobile phase, after the chamber was previously saturated with solvent vapors for approximately 1 h.
(§4) The unfolded-protein-impregnated plates and the control plates were scanned with a Desaga CD 60 densitometer. The values of the delay factor (Rf) were collected, i.e., the ratio of the distance traveled by the substance to be analyzed to the distance traveled through the front of the mobile phase. […] The experiment was repeated (for both BSA-coated and control plates) and the Rf values pooled are the mean of both series of experiments.

[4] = RP TLC on non-impregnated control plates; assay type: physicochemical; settings: for CRP (Rf, control RP plate): Table S4, non-impregnated RP plate, acetonitrile/acetate buffer pH 7.4/methanol 60:20:20; for CRP (Rf value from the non-impregnated RP plate, control): Table S8, external group
Method: as §1, §2, §3, §4

[5] = HPLC on immobilized artificial membrane column (HPLCIAM); assay type: physicochemical; settings: for log k IAM: Table S5, IAM column, pH 7.4; for k IAM: Table S5, retention factor, IAM column, phosphate buffer pH 7.4/acetonitrile 80:20; for kIAM / log kIAM: Table S9, external group
Method: (§5) High performance liquid chromatography was performed using immobilized human serum albumin column (HPLCHSA) and immobilized artificial membrane (HPLCIAM). HPLC was the source of the log k values (logarithm of retention factor), log kHSA and log kIAM.
The second experiment was performed using an immobilized artificial membrane (IAM) column. The assay was also performed on a Perkin Elmer Series 200 instrument connected to a UV-VIS spectrometer as the detector. The analytical wavelength was the same for all compounds, at 210 nm. […] The mobile phase was a mixture of 10 mM phosphate buffer pH 7.4 and acetonitrile in the ratio 80:20 (v/v). The phosphate buffer was obtained by dissolving the finished tablet in the appropriate amount of distilled water (1 tablet per 200 mL). In this case, it was not necessary to adjust the pH of the buffer using a pH meter.
The phase flow through the system was set to 0.5 mL/min as recommended by the column manufacturer. The solutions were delivered to the column using an autosampler syringe, the injection size was 10 µL.
The experiment was then repeated and the collected retention rates were the mean values of both series.

[6] = target: T2, human serum albumin (HSA) (Homo sapiens, UniProt P02768)
T2 sequence (P02768 25-609): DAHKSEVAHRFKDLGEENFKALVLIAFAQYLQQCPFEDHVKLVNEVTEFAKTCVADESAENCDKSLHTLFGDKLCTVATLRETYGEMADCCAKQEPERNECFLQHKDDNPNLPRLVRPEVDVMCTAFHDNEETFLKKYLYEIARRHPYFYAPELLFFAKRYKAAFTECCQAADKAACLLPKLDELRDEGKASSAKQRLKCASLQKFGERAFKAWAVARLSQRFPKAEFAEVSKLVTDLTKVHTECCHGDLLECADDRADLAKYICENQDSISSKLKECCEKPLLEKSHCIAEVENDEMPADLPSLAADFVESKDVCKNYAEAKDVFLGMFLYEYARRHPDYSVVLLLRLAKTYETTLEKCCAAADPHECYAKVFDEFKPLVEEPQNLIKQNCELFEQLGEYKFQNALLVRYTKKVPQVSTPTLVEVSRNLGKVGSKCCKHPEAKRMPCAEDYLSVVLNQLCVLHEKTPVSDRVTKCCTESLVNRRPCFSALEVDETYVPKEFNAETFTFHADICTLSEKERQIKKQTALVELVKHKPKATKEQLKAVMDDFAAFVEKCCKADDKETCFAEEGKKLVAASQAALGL
Method: as §5
(§6) High performance liquid chromatography was performed using a chromatography column with immobilized human serum albumin. The assay was performed on a Perkin Elmer Series 200 instrument connected to a UV-VIS spectrometer as detector. The analytical wavelength was the same for all compounds at 210 nm. […] The acetate buffer was prepared by dissolving 0.77 g of ammonium acetate in 1 L of distilled water. The pH was then adjusted with a concentrated ammonia solution using a pH meter.
(§7) The phase flow through the system was set to 0.9 mL/min as recommended by the column manufacturer. The solutions were delivered to the column using an autosampler syringe, the injection size was 10 µL. Since the column could not be thermostated, the room was kept at a constant temperature of 25 degrees Celsius.
(§8) Chromatographic data (retention coefficient, k, and derivative, log k) were obtained with TotalChrom software connected to an HPLC instrument. […] The experiment was then repeated and the collected retention rates were the mean values of both series.

plasma protein = settings: ref DrugBank [7], cited from earlier work
[7] = Table S1, coded 1/0; ref DrugBank [7]; cited from earlier work
[8] = target: T2, human serum albumin (HSA); assay: in vitro; settings: immobilized hsa column, pH 7.4
Method: as §5, §6, §7, §8

[9] = Table S5, retention factor, HSA column, pH 7.4, 25 degrees Celsius
[10] = human, immobilized hsa column, pH 7.4
[11] = Table S1, plasma protein binding given as fraction
[12] = Table S6, external group (n = 38), given as fraction

SMILES | NP (Rf, BSA-impregnated NP plate) [1] | RP (Rf, BSA-impregnated RP plate) [2] | CNP (Rf, control NP plate) [3] | CRP (Rf, control RP plate) [4] | log k IAM [5] | k IAM [5] | k HSA [6, 9] | PB (plasma protein; [11]) | CNS+/- [7] | log k HSA ([6]; Table S5, HSA, pH 7.4) | other results
COc1ccc(CCN2CCC(Nc3nc4ccccc4n3Cc3ccc(F)cc3)CC2)cc1 [astemizol] | 0.61 | 0.62 | 0.62 | 0.65 | 1.42 | 26.27 | 13.32 | 0.967 |  |  | log k HSA [6, 10]: 1.12
OC(CCN1CCCCC1)(c1ccccc1)C1CC2C=CC1C2 (stereo not shown) [biperiden] | 0.65 | 0.85 | 0.68 | 0.87 | 1.62 | 41.47 | 0.58 | 0.6 |  |  | log k HSA [6, 10]: -0.24
CC(C)NCC(O)COc1ccc(COCCOC(C)C)cc1 (stereo not shown) [bisoprolol] | 0.66 | 0.56 | 0.67 | 0.57 | 0.83 | 6.74 | 1.07 | 0.3 | 0 |  | 
CCCCCOC(=O)Nc1nc(=O)n([C@@H]2O[C@H](C)[C@@H](O)[C@H]2O)cc1F [capecitabine] | 0.92 | 0.89 | 0.92 | 0.90 | 0.04 | 1.11 |  | 0.6 |  |  | 
C=CCN1C[C@H](C(=O)N(CCCN(C)C)C(=O)NCC)C[C@@H]2c3cccc4[nH]cc(c34)C[C@H]21 [carbegoline] | 0.68 | 0.68 | 0.68 | 0.68 | 1.23 | 17.05 | 3.23 | 0.41 |  | 0.51 | 
CN(C)CCOC(c1ccccc1)c1ccccc1 [diphenhydramin] | 0.33 | 0.54 | 0.42 | 0.58 | 0.56 | 3.66 | 1.88 | 0.985 |  | 0.27 | 
CCOc1ccc(/C=C2\NCCc3cc(OCC)c(OCC)cc32)cc1OCC [drotaverine] | 0.59 | 0.58 | 0.61 | 0.55 | 1.49 | 31.24 | 1.91 |  | 1 |  | log k HSA [6, 10]: 0.28
C[C@]12CC[C@@H]3c4ccc(OC(=O)c5ccccc5)cc4CC[C@H]3[C@@H]1CC[C@@H]2O [estradiol benzoate] | 0.98 | 0.62 | 0.97 | 0.63 | 0.84 | 6.92 |  | 0.95 |  |  | 
O=C(CCCN1CCC(O)(c2ccc(Cl)cc2)CC1)c1ccc(F)cc1 [haloperidol] | 0.65 | 0.64 | 0.66 | 0.61 | 1.38 | 23.74 | 4.8 | 0.92 |  | 0.68 | 
Cc1cc2c(s1)Nc1ccccc1N=C2N1CCN(C)CC1 [olanzapine] |  |  |  |  | 1.31 | 20.31 |  |  |  |  | k HSA ([6]; pH 7.4): 4.83; chromatographic logD [8]: 0.68
COc1ccnc(C[S+]([O-])c2nc3ccc(OC(F)F)cc3[nH]2)c1OC (stereo not shown) [pantoprazole] | 0.92 | 0.83 | 0.93 | 0.85 | 0.34 | 2.19 | 2.09 | 0.98 | 0 |  | log k HSA [6, 10]: 0.32
CCC[C@H](N[C@@H](C)C(=O)N1[C@H](C(=O)O)C[C@@H]2CCCC[C@@H]21)C(=O)OCC [perindopril] | 0.46 | 0.58 | 0.47 | 0.57 | -0.76 | 0.18 | 0.49 | 0.15 | 0 |  | log k HSA [6, 10]: -0.31
CCC1(c2ccccc2)C(=O)NCNC1=O [primidone] |  |  |  |  |  |  |  |  |  |  | NP (Rf value from the NP plate impregnated with 2 mg/mL BSA solution) [1]: 0.93; RP (Rf value from the RP plate impregnated with 2 mg/mL BSA solution) [2]: 0.97; CNP (Rf value from the non-impregnated NP plate, control) [3]: 0.90; CRP (Rf value from the non-impregnated RP plate, control) [4]: 0.93; kIAM [5]: 2.02; log kIAM [5]: 0.31; kHSA ([6]; Table S9, external group): 0.22; log kHSA ([6]; Table S9, external group): -0.66
CC(=O)[C@H]1CC[C@H]2[C@@H]3CCC4=CC(=O)CC[C@]4(C)[C@H]3CC[C@]12C [progesterone] | 0.96 | 0.68 | 0.96 | 0.71 | 1.54 | 34.99 | 5.7 | 0.975 |  | 0.76 | 
CC(CN1c2ccccc2Sc2ccccc21)N(C)C (stereo not shown) [promethazine] | 0.42 | 0.47 | 0.43 | 0.49 | 1.17 | 14.96 | 5.35 | 0.93 | 1 | 0.73 | 
OCCOCCN1CCN(C2=Nc3ccccc3Sc3ccccc32)CC1 [quetiapine] | 0.68 | 0.69 | 0.68 | 0.73 | 1.23 | 17.02 | 2.48 | 0.83 | 1 |  | log k HSA [6, 10]: 0.39
CO[C@H]1/C=C/O[C@@]2(C)Oc3c(C)c(O)c4c(O)c(c(/C=N/N5CCN(C)CC5)c(O)c4c3C2=O)NC(=O)/C(C)=C\C=C\[C@H](C)[C@H](O)[C@@H](C)[C@@H](O)[C@@H](C)[C@H](OC(C)=O)[C@@H]1C [rifampicin] |  |  |  |  |  |  |  |  |  |  | NP (Rf value from the NP plate impregnated with 2 mg/mL BSA solution) [1]: 0.77; RP (Rf value from the RP plate impregnated with 2 mg/mL BSA solution) [2]: 0.94; CNP (Rf value from the non-impregnated NP plate, control) [3]: 0.73; CRP (Rf value from the non-impregnated RP plate, control) [4]: 0.95; kIAM [5]: 8.37; log kIAM [5]: 0.92; kHSA ([6]; Table S9, external group): 0.03; log kHSA [6, 10]: -1.53; PB (plasma protein; [12]): 0.89
Cc1nc2n(c(=O)c1CCN1CCC(c3noc4cc(F)ccc34)CC1)CCCC2 [risperidone] |  |  |  |  | 0.68 | 4.83 |  |  |  |  | k HSA ([6]; pH 7.4): 2.11; chromatographic logD [8]: 0.32
CC[C@H]1OC(=O)[C@H](C)[C@@H](O[C@H]2C[C@@](C)(OC)[C@@H](O)[C@H](C)O2)[C@H](C)[C@@H](O[C@@H]2O[C@H](C)C[C@H](N(C)C)[C@H]2O)[C@](C)(O)C[C@@H](C)/C(=N\OCOCCOC)[C@H](C)[C@@H](O)[C@]1(C)O [roxitromicin] | 0.92 | 0.79 | 0.91 | 0.80 |  |  | 1.03 | 0.96 |  | 0.01 | 
CCCc1nc2c(C)cc(-c3nc4ccccc4n3C)cc2n1Cc1ccc(-c2ccccc2C(=O)O)cc1 [telmisartan] | 0.90 | 0.85 | 0.90 | 0.87 | 0.67 | 4.68 |  | 0.995 | 1 |  | 
CC(C)(C)NC[C@H](O)COc1nsnc1N1CCOCC1 [timolol] |  |  |  |  |  |  |  |  |  |  | NP (Rf value from the NP plate impregnated with 2 mg/mL BSA solution) [1]: 0.32; RP (Rf value from the RP plate impregnated with 2 mg/mL BSA solution) [2]: 0.97; CNP (Rf value from the non-impregnated NP plate, control) [3]: 0.34; CRP (Rf value from the non-impregnated RP plate, control) [4]: 0.97; kIAM [5]: 2.88; log kIAM [5]: 0.46; kHSA ([6]; Table S9, external group): 0.13; PB (plasma protein; [12]): 0.10
CCN(Cc1ccncc1)C(=O)C(CO)c1ccccc1 (stereo not shown) [tropicamid] | 0.86 | 0.83 | 0.85 | 0.83 | 0.03 | 1.06 | 0.15 | 0.45 | 1 | -0.82 | 
CN(C)CCc1c[nH]c2ccc(C[C@H]3COC(=O)N3)cc12 [zolmitriptane] | 0.29 | 0.86 | 0.31 | 0.86 | 0.52 | 3.30 | 1.7 | 0.25 |  | 0.23 | 
